Results reported in publication PMC7001580 (Nature chemical biology, 2016).

Key:
[1] = target: T1, At2g17340 (Arabidopsis thaliana, UniProt Q949P3); assay: phosphate release, Malachite Green, Hill fit; assay type: biochemical; settings: 0.2 mM Ni2+, 30 °C; sigmoidal kinetics
T1 sequence (Q949P3 1-367 limits assumed): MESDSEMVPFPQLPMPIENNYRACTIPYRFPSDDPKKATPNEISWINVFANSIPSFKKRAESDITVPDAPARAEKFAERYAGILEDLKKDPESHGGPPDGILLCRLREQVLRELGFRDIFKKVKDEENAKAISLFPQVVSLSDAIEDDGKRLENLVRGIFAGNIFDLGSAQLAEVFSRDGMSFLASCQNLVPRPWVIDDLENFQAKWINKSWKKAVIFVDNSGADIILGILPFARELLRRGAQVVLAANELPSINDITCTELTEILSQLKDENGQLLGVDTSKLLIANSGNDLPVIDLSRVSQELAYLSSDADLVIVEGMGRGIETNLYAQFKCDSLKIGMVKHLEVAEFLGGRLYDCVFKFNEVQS

[2] = target: T2, PH1575 (Pyrococcus horikoshii, UniProt O59272); assay: phosphate release, Malachite Green, Michaelis-Menten fit; assay type: biochemical; settings: Ni2+ as preferred metal
T2 sequence (O59272 1-287): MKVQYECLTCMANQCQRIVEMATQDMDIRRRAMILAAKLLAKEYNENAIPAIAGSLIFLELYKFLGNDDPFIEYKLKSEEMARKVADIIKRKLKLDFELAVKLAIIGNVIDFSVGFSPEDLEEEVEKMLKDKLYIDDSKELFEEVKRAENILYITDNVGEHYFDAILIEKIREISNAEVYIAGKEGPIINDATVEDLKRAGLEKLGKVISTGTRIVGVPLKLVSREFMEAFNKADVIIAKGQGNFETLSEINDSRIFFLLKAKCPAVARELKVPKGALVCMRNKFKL

[3] = target: T3, At2g17340 (Arabidopsis thaliana, UniProt Q949P3, N221A); assay: phosphatase activity compared with wild type; assay type: biochemical; settings: alanine mutant of signature residue
T3 sequence (Q949P3 1-367 N221A limits assumed): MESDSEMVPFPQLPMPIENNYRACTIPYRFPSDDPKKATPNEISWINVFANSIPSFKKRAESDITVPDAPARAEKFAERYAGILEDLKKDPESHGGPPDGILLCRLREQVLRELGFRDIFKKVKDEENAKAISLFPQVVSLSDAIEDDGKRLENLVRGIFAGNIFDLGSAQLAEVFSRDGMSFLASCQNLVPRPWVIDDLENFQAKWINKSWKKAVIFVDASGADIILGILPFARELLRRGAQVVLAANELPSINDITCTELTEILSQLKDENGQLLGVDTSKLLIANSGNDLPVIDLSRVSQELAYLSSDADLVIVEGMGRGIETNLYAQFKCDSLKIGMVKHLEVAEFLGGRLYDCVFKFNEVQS

[4] = target: T4, At2g17340 (Arabidopsis thaliana, UniProt Q949P3, D220A); assay: phosphatase activity compared with wild type; assay type: biochemical; settings: alanine mutant of signature residue
T4 sequence (Q949P3 1-367 D220A limits assumed): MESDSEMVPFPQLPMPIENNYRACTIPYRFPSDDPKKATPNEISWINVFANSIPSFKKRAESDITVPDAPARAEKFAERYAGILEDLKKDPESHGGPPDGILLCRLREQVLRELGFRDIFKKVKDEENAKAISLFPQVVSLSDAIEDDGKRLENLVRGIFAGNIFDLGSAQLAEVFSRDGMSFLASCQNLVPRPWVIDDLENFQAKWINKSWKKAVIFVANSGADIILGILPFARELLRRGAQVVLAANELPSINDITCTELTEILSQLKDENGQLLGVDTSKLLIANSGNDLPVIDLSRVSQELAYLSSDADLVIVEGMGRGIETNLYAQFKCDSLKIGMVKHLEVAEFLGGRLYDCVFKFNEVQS

[5] = target: T5, YMR027W (Saccharomyces cerevisiae, UniProt Q04371, N255A); assay: phosphatase activity compared with wild type; assay type: biochemical; settings: alanine mutant of signature residue
T5 sequence (Q04371 1-470 N255A): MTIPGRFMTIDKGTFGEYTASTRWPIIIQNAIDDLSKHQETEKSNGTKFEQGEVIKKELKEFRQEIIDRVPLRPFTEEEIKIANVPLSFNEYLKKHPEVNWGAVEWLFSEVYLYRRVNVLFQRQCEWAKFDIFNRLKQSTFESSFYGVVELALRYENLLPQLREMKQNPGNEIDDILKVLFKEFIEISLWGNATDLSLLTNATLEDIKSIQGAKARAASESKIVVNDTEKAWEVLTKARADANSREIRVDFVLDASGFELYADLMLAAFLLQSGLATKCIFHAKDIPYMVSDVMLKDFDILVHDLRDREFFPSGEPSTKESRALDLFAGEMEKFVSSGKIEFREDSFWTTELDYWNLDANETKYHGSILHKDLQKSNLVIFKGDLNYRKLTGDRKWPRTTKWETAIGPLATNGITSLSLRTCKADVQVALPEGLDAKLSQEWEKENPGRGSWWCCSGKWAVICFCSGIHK

[6] = target: T6, YMR027W (Saccharomyces cerevisiae, UniProt Q04371, D254A); assay: phosphatase activity compared with wild type; assay type: biochemical; settings: alanine mutant of signature residue
T6 sequence (Q04371 1-470 D254A): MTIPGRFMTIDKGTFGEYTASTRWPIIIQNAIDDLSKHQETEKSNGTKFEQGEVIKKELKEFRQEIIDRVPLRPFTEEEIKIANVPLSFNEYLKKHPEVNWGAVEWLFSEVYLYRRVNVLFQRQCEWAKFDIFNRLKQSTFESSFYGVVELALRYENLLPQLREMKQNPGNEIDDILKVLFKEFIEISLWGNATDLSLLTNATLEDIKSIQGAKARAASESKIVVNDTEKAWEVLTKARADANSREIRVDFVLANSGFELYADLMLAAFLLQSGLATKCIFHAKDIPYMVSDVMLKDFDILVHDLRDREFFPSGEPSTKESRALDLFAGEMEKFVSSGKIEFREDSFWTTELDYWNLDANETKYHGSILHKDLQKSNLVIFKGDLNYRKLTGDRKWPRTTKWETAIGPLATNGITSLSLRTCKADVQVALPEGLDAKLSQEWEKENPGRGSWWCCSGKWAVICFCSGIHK

[7] = target: T7, YMR027W (Saccharomyces cerevisiae, UniProt Q04371); assay: crystal structure, soaking with […] fructose 6-phosphate, […] Å; assay type: binding; settings: Mg2+ bound, pH 5.5; active site; protein pretreated with chymotrypsin
T7 sequence (Q04371 1-470): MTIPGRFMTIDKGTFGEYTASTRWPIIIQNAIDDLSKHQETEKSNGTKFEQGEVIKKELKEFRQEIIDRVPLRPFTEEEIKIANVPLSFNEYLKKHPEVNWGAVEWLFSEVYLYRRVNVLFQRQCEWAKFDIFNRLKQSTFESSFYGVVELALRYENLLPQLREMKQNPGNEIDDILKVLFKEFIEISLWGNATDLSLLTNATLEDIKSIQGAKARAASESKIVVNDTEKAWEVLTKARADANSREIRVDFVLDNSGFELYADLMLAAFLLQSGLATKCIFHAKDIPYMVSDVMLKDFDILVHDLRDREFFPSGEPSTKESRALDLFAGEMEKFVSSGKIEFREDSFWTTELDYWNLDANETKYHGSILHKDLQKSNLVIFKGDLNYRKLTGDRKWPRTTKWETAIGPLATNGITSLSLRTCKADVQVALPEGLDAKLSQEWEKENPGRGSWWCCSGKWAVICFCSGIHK

[8] = target: the molecule itself; assay: SEC

Question: `O=P(O)(O)OC[C@H]1OC(O)[C@H](O)[C@@H]1O` (some centres unmarked) [ribose 5-phosphate] was tested. Which S0.5 [1] did it give?
Answer: At2g17340 showed sigmoidal kinetics with ribose 5-phosphate or 2-deoxyribose 5-phosphate

Question: How did the kinetic constants [2] turn out when `Nc1ncnc2c1ncn2[C@@H]1O[C@H](COP(=O)(O)OP(=O)(O)O)[C@@H](O)[C@H]1O` [ADP] was run?
Answer: the kinetic constants for 8-oxo-dGTP were close to those for ADP

Question: Which kinetic constants [2] does the source give for `Nc1nc2c([nH]c(=O)n2[C@H]2C[C@H](O)[C@@H](COP(=O)(O)OP(=O)(O)OP(=O)(O)O)O2)c(=O)[nH]1` [8-oxo-dGTP] here?
Answer: the kinetic constants for 8-oxo-dGTP were close to those for ADP

Question: For `O=[N+]([O-])c1ccc(OP(=O)(O)O)cc1` [pNPP, p-nitrophenyl phosphate], which catalytic activity [3] is on record?
Answer: At2g17340 (Asp220, Asn221, and Asp256) abolished catalytic activity

Question: What about the catalytic activity [4] of the same molecule?
Answer: At2g17340 (Asp220, Asn221, and Asp256) abolished catalytic activity

Question: And the catalytic activity [5]?
Answer: signature residues of YMR027W (Asp254, Asn255, and Asp292)

Question: And the catalytic activity [6]?
Answer: signature residues of YMR027W (Asp254, Asn255, and Asp292)

Question: With `O=P(O)(O)OC[C@H]1OC(O)(CO)[C@@H](O)[C@@H]1O` (some centres unmarked) [F6P, fructose 6-phosphate] as the molecule, how does the “crystal structure, soaking with 10 mM fructose 6-phosphate, 1.77 Å” value [7] read?
Answer: Crystal soaking using YMR027W and the substrate fructose 6-phosphate

Question: Which S0.5 [1] does the source give for `O=P(O)(O)OC[C@H]1OC(O)C[C@@H]1O` (some centres unmarked) [2-deoxyribose 5-phosphate] here?
Answer: At2g17340 showed sigmoidal kinetics with ribose 5-phosphate or 2-deoxyribose 5-phosphate

B1: Pyrococcus horikoshii DUF89 subfamily I protein PH1575 (enzyme, P. horikoshii)
chain: MKVQYECLTCMANQCQRIVEMATQDMDIRRRAMILAAKLLAKEYNENAIPAIAGSLIFLELYKFLGNDDPFIEYKLKSEEMARKVADIIKRKLKLDFELAVKLAIIGNVIDFSVGFSPEDLEEEVEKMLKDKLYIDDSKELFEEVKRAENILYITDNVGEHYFDAILIEKIREISNAEVYIAGKEGPIINDATVEDLKRAGLEKLGKVISTGTRIVGVPLKLVSREFMEAFNKADVIIAKGQGNFETLSEINDSRIFFLLKAKCPAVARELKVPKGALVCMRNKFKL
Question: B1 was tested. Which “stoichiometry N” value [8] did it give?
Answer: 2

B2: Archaeoglobus fulgidus DUF89 subfamily I protein AF1104 (enzyme, A. fulgidus)
chain: MKISPLCPSCLLGRVYYEAKLVTDDEDLISQCVDESLKILAENYSSRPINAHLATRIHRRVYEILGVEDPYAEVKARANEVARQVLPLAKEIVEGSDDPFKTAVIVSIVGNNFDYGVQGHKVVEEEFRDFLKRKVQEGLKINDTERIKELSSGKVVYLTDNAGEIFFDTLLMKEIKRRCEKLTAVVRGRPIISDATIEDARLARVDKIADELLTNGKGAIGIIMDELPDETRKALEEADLIVAKGMANYECLSDGSLKPIAFLLTAKCEPVARDIGVNVGDMVAKVVE
Question: B2 was tested. Which “stoichiometry N” value [8] did it give?
Answer: 2
